One may read the IC50 as the point on the concentration scale where inhibition reaches its midpoint.

Data set [1] in a line: Stability in USP simulated gastric juice. In kind it is in vitro ADME. The conditions noted are these: USP SGF pH 1.1, pepsin […], prodrug 20 μg/mL. The text has this:
To minimize the direct inhibitory action of this drug on gastric emptying/gut motility—and resultant nausea—the prodrug should not undergo premature chemical or enzymic cleavage back to the parent drug while within the gut lumen.

Data set [2] can be described thus: Stability in simulated intestinal juice (FeSSIF). In kind it is in vitro ADME. The conditions noted are these: FeSSIF pH 5.0, pancreatin 1%. As for the experimental part: (§1) To avoid direct interaction between the active drug and the gut microfloral population, the prodrug should not undergo premature chemical or enzymic cleavage back to the parent dug while within the gut lumen. To confirm this the prodrugs were incubated with USP SGF (simulated gastric fluid), FeSSIF (fed state simulated intestinal fluid) and FaSSIF (fasted state simulated intestinal fluid) and remaining prodrug and any generated active drug assayed by use of a qualified LC-MS/MS analytical method.
Pancreatin was again added at 1%.
(§2) To minimize the direct inhibitory action of this drug on gastric emptying/gut motility—and resultant nausea—the prodrug should not undergo premature chemical or enzymic cleavage back to the parent drug while within the gut lumen. To confirm this, the prodrugs were incubated with USP SGF (simulated gastric fluid), FeSSIF (fed state simulated intestinal fluid) and FaSSIF (fasted state simulated intestinal fluid) and remaining prodrug, and any generated active drug, assayed by use of a qualified LC-MS/MS analytical method.
(§3) To avoid direct interaction between the active drug and the gut, the prodrug should not undergo premature chemical or enzymic cleavage back to the parent dug while within the gut lumen. To confirm this the prodrugs were incubated with USP SGF (simulated gastric fluid), FeSSIF (fed state simulated intestinal fluid) and FaSSIF (fasted state simulated intestinal fluid) and remaining prodrug and any generated active drug assayed by use of a qualified LC-MS/MS analytical method.

The conditions of data set [3]: male rats; for Frel: relative bioavailability of donepezil vs dosing donepezil itself, mean. On the procedure:
Serial tail vein blood samples were subsequently collected via an indwelling cannuala into EDTA tubes containing a stabilising cocktail (including 6 mg/mL NaF) to prevent post collection enzymic hydrolysis of the prodrug.

Data set [4] can be described thus: Stability in simulated intestinal juice (FaSSIF). In kind it is in vitro ADME. To be noted: FaSSIF pH 6.5, pancreatin 1%, prodrug 20 μg/mL. As for the experimental part: as §1
Method—Prodrug (20 μg/mL) in the FaSSIF cocktail comprising sodium taurocholate 3 mM, lecithin 0.75 mM, NaOH 8.7 mM, NaH2PO4. H2O 28.7 mM, NaCl 106 mM, pancreatin 1% (overall pH 6.5) was incubated for 2 h at 37° C. After acidifying the incubation to stop any reaction the amount of prodrug remaining and drug generated were determined using a qualified LC-MS/MS method.
as §2
Prodrug (20 μg/mL) in the FaSSIF cocktail comprising sodium taurocholate 3 mM, lecithin 0.75 mM, NaOH 8.7 mM, NaH2PO4. H2O 28.7 mM, NaCl 106 mM, pancreatin 1% (overall pH 6.5) was incubated for 2 h at 37° C. After acidifying the incubation to stop any reaction the amount of prodrug remaining and drug generated were determined using a qualified LC-MS/MS method.
as §3

For another data set, the target named is T1, hNav1.1 channel (Homo sapiens, UniProt P35498).
T1 construct: expressed in transfected cells
The experiment in a line: Blockade of cloned Nav1.1 channels expressed in mammalian cells. In kind it is cell-based. On the procedure:
Blockade of hNav1.1 channel was measured using a stimulus voltage pattern shown in the diagram below: Voltage potentials are indicated in Table 13. The pulse pattern was repeated twice: before and 5 minutes after TA addition and peak current amplitudes at three test pulses were measured (ITP1, TP11 and ITP12).
Data acquisition and analyses was performed using the lonWorks Quattro™ system operation software (version 2.0.2; Molecular Devices Corporation, Union City, Calif.). Data was corrected for leak current.
The tonic block was calculated as:
% Block (Tonic)=(1−ITP1,TA/ITP1,Control)×100%,
10 Hz Block—the frequency-dependent block at stimulation frequency 10 Hz was calculated as:
% Block (10 Hz)=(1−ITP11, TA/ITP11, Control))×100%,
We define the inactivation state block as decrease in test pulse (TP12) current amplitude due to the conditioning depolarizing pulse (TP11). The inactivation state block was calculated as:
% Block (inactivation state)=(1−(ITP12, TA/[…])×100%,
Concentration-response data for the blocks were fit to an equation of the following form: […]
where [Test] is the concentration of test article, IC50 is the concentration of the test article producing half-maximal inhibition, N is the Hill coefficient, and % Block is the percentage of ion channel current inhibited at each concentration of the test article. Nonlinear least squares fits were solved with the Solver add-in for Excel 2000 (Microsoft, Redmond, Wash.).

The conditions of data set [5]: % of treated patients, cited from earlier work.
Where [6] appears, read: frequency-dependent block at 10 Hz (TP11), read-out: IC50 10 Hz block.
[7] abbreviates: inactivation state block (TP12), read-out: IC50 Inactivated state.
Where [8] appears, read: tonic block (TP1), read-out: IC50 Tonic block.

Structures are written as SMILES. Read-outs that look alike come from different tables or passages of the source.

In the case of `CCOC(=O)c1ccc(NC(=O)CCCC(=O)OC2=C(CC3CCN(Cc4ccccc4)CC3)Cc3cc(OC)c(OC)cc32)cc1` [Donepezil glutaryl PABA ethyl ester, donepezil[glutaryl-PABA ethyl ester]enol ester], the “Simulated gastric juice (1 h, 37° C.) % active drug generated” value in data set [1] is given as 2%. Further, the “Simulated intestinal juice (2 h, 37° C.) (FeSSIF) % active drug generated” value in data set [2] was 1%. The Prodrug plasma levels result in data set [3] (oral) is on record as “undetectable”. For the same compound, the Frel in data set [3] is 30%. Also, the “Simulated intestinal juice (2 h, 37° C.) (FaSSIF) % active drug generated” value in data set [4] is on record as 2%.

For the compound `CCOC(=O)[C@@H](NC(=O)CCCC(=O)OC1=C(CC2CCN(Cc3ccccc3)CC2)Cc2cc(OC)c(OC)cc21)C(C)C` [Donepezil glutaryl valine ethyl ester, donepezil[glutaryl-(S)-valineethyl ester]enol ester], in data set [1], the “Simulated gastric juice (1 h, 37° C.) % active drug generated” value is on record as 2%. Also, in data set [2], the “Simulated intestinal juice (2 h, 37° C.) (FeSSIF) % active drug generated” value was 3%. The “plasma persistence of donepezil” value in data set [3] (oral) was “not in evidence”. Besides, the Frel in data set [3] is listed as 31%. In addition, the “Simulated intestinal juice (2 h, 37° C.) (FaSSIF) % active drug generated” value in data set [4] was 11%.

For the compound `CCCNCC(COc1ccccc1C(=O)CCc1ccccc1)OC(=O)CCCC(=O)Nc1ccc(C(=O)O)cc1` (centres unmarked) [Propafenone glutaryl PABA ester, Propafenone (glutaryl-PABA) ester], the 50% inhibitory concentration (IC50) on hNav1.1 channel (setting [6]) was 96.3 µM; at hNav1.1 channel (setting [7]), 32.2 µM; on hNav1.1 channel (setting [8]) it was 464 µM.

Turning to `CCCNCC(COc1ccccc1C(=O)CCc1ccccc1)OC(=O)CCC(=O)N[C@H](C(=O)O)C(C)C` (stereo partly drawn) [Propafenone succinyl valine ester, Propafenone[succinyl-(S)-valine]ester], the 50% inhibitory concentration (IC50) at hNav1.1 channel (setting [6]) was 69.5 µM; on hNav1.1 channel (setting [7]) it was 37.2 µM; at hNav1.1 channel (setting [8]), 151 µM.

Turning to `Cc1cn([C@H]2C=C[C@@H](CO)O2)c(=O)[nH]c1=O` [Stavudine], in data set [5], the incidence of diarrhoea is recorded as 44%; the “incidence of nausea and vomiting” value is on record as 39-44%.

In the case of `CC(C)CN(C[C@@H](O)[C@H](Cc1ccccc1)NC(=O)O[C@H]1CCOC1)S(=O)(=O)c1ccc(N)cc1` [amprenavir], in data set [5], the incidence of diarrhoea was 39%, the incidence of nausea is given as 74% and the incidence of vomiting is 34%.

Take `C#Cc1cccc(Nc2ncnc3cc(OCCOC)c(OCCOC)cc23)c1` [erlotinib]: the incidence of diarrhoea in data set [5] is reported as 50-60%.

Take `CCCCN1C[C@H](O)[C@@H](O)[C@H](O)[C@H]1CO` [miglustat]: the incidence of diarrhoea result in data set [5] is on record as “up to 89%”.

`Cc1ccc(Nc2nccc(N(C)c3ccc4c(C)n(C)nc4c3)n2)cc1S(N)(=O)=O` [pazopanib]: the incidence of diarrhoea is given as approximately 50% in data set [5] and more than 50% in data set [5] (listed as pazapanib).

Consider `COc1ccc(C(CN(C)C)C2(O)CCCCC2)cc1` (centres unmarked) [venlefaxine, venlafaxine], for which, in data set [5], the incidence of nausea entry is listed as “Up to 30%”.

(Values after US20120202756A1, “USE OF PRODRUGS TO AVOID GI MEDIATED ADVERSE EVENTS” (priority 2009, published 2012).)
